Test results reported in ChEMBL document CHEMBL1144416, “Structural requirements for factor Xa inhibition by 3-oxybenzamides with neutral P1 substituents: combining X-ray crystallography, 3D-QSAR, and tailored scoring functions” (J Med Chem, 2005).

biological target: not listed separately; experiment: Binding affinity towards Thrombin; set-up: species or system Homo sapiens

Row | Ki | Structure (SMILES)
1 | 2.27 µM | COc1cc(C(=O)NCC2CCN(c3ccncc3)CC2)cc(OCCc2ccc(Cl)cc2Cl)c1Br
2 | 5.62 µM | O=C(NCC1CCN(c2ccncc2)CC1)c1ccc(F)c(OCCc2ccc(Cl)cc2)c1
3 | 5.08 µM | NC(=O)c1cc(OCCc2ccc(Cl)cc2Cl)cc(C(=O)NCC2CCN(c3ccncc3)CC2)c1
4 | 4.73 µM | O=C(NCC1CCN(c2ccncc2)CC1)c1ccc(Cl)c(OCCc2ccc(Br)cc2)c1
5 | 1.68 µM | O=C(NCC1CCN(c2ccncc2)CC1)c1cc(OCCc2ccc(Cl)cc2Cl)c2c(c1)OCO2
6 | 6.32 µM | CCOc1ccc(C(=O)NCC2CCN(c3ccncc3)CC2)cc1OCCc1ccc(Cl)cc1Cl
7 | 3.73 µM | COc1cc(C(=O)NCC2CCN(c3ccncc3)CC2)cc(OCCc2ccc(Cl)cc2)c1Cl
8 | 4.12 µM | COc1cc(C(=O)NCC2CCN(c3ccncc3)CC2)cc(OCCc2ccc(Cl)cc2Cl)c1OC

Continued, compound first:

Row | Structure (SMILES) | Ki
9 | COc1cc(C(=O)NCC2CCN(c3ccncc3)CC2)cc(OCCc2ccc(Cl)cc2Cl)c1Cl | 1.8 µM
10 | O=C(NCC1CCN(c2ccncc2)CC1)c1ccc(Cl)c(OCCc2ccc(Cl)cc2)c1 | 2.76 µM
11 | O=C(NCC1CCN(c2ccncc2)CC1)c1ccc(Cl)c(OCCc2ccc(Cl)cn2)c1 | 5.4 µM
12 | O=C(NCC1CCN(c2ccncc2)CC1)c1ccc(C(F)(F)F)c(OCCc2ccc(Cl)cc2Cl)c1 | 31.8 µM
13 | COc1ccc(C(=O)NCC2CCN(c3ccnc(C)c3)CC2)cc1OCCc1ccc(Cl)cc1Cl | 20.8 µM
14 | CCOc1cc(C(=O)NCC2CCN(c3ccncc3)CC2)cc(OCCc2ccc(Cl)cc2Cl)c1Br | 36.9 µM
15 | Cc1ccc(C(=O)NCC2CCN(c3ccncc3)CC2)cc1OCCc1ccc(Cl)cc1Cl | 4.87 µM
16 | CNc1ccc(C(=O)NCC2CCN(c3ccncc3)CC2)cc1OCCc1ccc(Cl)cc1Cl | 1.1 µM
17 | COc1ccc(C(=O)NCC2CCN(c3ccncc3)CC2)cc1OCCc1ccc(Cl)cc1 | 5.27 µM
18 | O=C(NCC1CCN(c2ccncc2)CC1)c1ccc(Cl)c(OCCc2ccc(Cl)cc2Cl)c1 | 3.06 µM
19 | COc1cc(C(=O)NCC2CCN(c3ccncc3)CC2)cc(OCCc2ccc(Cl)cc2Cl)c1C | 1.74 µM

biological target: Coagulation factor X (Homo sapiens, UniProt P00742); experiment: Binding affinity towards human Coagulation factor X
Sequence (P00742 41-179 limits assumed): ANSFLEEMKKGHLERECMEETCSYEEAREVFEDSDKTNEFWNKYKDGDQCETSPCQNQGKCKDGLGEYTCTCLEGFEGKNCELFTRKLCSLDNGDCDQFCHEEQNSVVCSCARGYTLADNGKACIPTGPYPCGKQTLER
Sequence (P00742 235-488 limits assumed): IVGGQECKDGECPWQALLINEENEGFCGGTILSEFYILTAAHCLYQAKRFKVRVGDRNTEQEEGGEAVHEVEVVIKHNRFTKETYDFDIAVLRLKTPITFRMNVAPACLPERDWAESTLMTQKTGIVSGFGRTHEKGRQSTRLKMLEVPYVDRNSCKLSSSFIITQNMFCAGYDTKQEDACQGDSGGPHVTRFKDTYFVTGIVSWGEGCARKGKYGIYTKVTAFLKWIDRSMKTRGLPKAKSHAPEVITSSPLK

Row | Ki | Structure (SMILES)
20 | 10 µM | COc1ccc(C(=O)NCC2CCN(c3cc(C)nc(N)n3)CC2)cc1OCCc1ccc(Cl)cc1Cl
21 | 10 µM | COc1ccc(C(=O)NCC2CCN(c3cccc(C#N)c3)CC2)cc1OCCc1ccc(Cl)cc1Cl
22 | 2.52 µM | COc1ccc(C(=O)NC2CCN(C3CCOCC3)CC2)cc1OCCc1ccc(Cl)cc1Cl
23 | 4.03 µM | COc1ccc(C(=O)NC2CCN(C3CCCCC3)CC2)cc1OCCc1ccc(Cl)cc1Cl
24 | 10 µM | COc1ccc(C(=O)NCC2CCN(c3ccc(S(C)(=O)=O)cc3)CC2)cc1OCCc1ccc(Cl)cc1Cl
25 | 10 µM | CC(=O)Nc1ccc(CCOc2cc(C(=O)NCC3CCN(c4ccncc4)CC3)ccc2F)cc1
26 | 10 µM | CC(=O)Nc1ccc(CCOc2cc(C(=O)NCC3CCN(c4ccncc4)CC3)ccc2Cl)cc1
27 | 2.57 µM | COc1ccc(C(=O)NC2CCN(CC(=O)N3CCCC3)CC2)cc1OCCc1ccc(Cl)cc1Cl
28 | 5.76 µM | COc1ccc(C(=O)NCC2CCN(C3CCNCC3)CC2)cc1OCCc1ccc(Cl)cc1Cl
29 | 10 µM | COc1cc(N2CCC(CNC(=O)c3ccc(OC)c(OCCc4ccc(Cl)cc4Cl)c3)CC2)nc(OC)n1
30 | 2.82 µM | O=C(c1cccc(OCCc2ccc(Cl)cc2Cl)c1)N1CCN(Cc2ccncc2)CC1

Further lines, the compound ahead of its results:

Row | Structure (SMILES) | Ki
31 | COc1ccc(C(=O)NCC2CCN(c3cncnc3)CC2)cc1OCCc1ccc(Cl)cc1Cl | 10 µM
32 | COc1ccc(C(=O)NCC2CCN(c3ccc(Cl)cc3)CC2)cc1OCCc1ccc(Cl)cc1Cl | 10 µM
33 | COc1ccc(C(=O)NC2CCN(c3cc[n+]([O-])cc3)CC2)cc1OCCc1ccc(Cl)cc1Cl | 1.27 µM
34 | CC(=O)Oc1cc(C(=O)NCC2CCN(c3ccncc3)CC2)cc(OCCc2ccc(Cl)cc2Cl)c1Br | 0.285 µM
35 | COc1ccc(C(=O)N2CCN(Cc3ccc(F)cc3)CC2)cc1OCCc1ccc(Cl)cc1Cl | 3.93 µM
36 | CCN(CC)C(=O)[C@H](CCCN=C(N)N)NC(=O)c1ccc(OC)c(OCCc2ccc(Cl)cc2Cl)c1 | 0.153 µM
37 | COc1ccc(C(=O)Nc2ccc(-c3ccccc3C#N)cc2)cc1OCCc1ccc(Cl)cc1Cl | 10 µM
38 | COc1ccc(N2CCC(CNC(=O)c3ccc(OC)c(OCCc4ccc(Cl)cc4Cl)c3)CC2)cn1 | 10 µM
39 | COc1ccc(C(=O)NCC2CCN(c3ccnc(SC)n3)CC2)cc1OCCc1ccc(Cl)cc1Cl | 10 µM
